Data as given in US9079854B2 (priority 2007, dated 2015).

Assays:
[1] = test system: tactile allodynia in a spinal nerve ligation neuropathic pain model; assay: Lumbar 5/6 spinal nerve ligation neuropathic pain model, mechanical paw withdrawal threshold (von Frey); format: in vivo, rat; details: pretreatment with 5 mg/kg i.p.; rats
From the text: Neuropathic pain was induced following the methods of Kim and Chung. Kim S H, Chung J M. An experimental model for peripheral neuropathy produced by segmental spinal nerve ligation in the rat. Pain 1992; 50:355-63. Rats were anesthetized and placed prone under a microsurgical apparatus. A midline incision was made on the back, and the right paraspinal muscles were separated from the spinous processes at the L4-S2 levels. The L6 transverse process was carefully removed, and the L4/5 spinal nerves were identified. The L5 nerve was tightly ligated with a 6-0 silk suture. The right L6 spinal nerve was then located just caudal and medial to the sacroiliac junction and tightly ligated with a silk suture.
Two weeks later after spinal nerve ligation, Intrathecal catheters (PE-10 tubing) was inserted into the rats while they were anesthetized with isoflurane, as described by Yaksh and Rudy. Yaksh T L, Rudy T A. Chronic catheterization of the spinal subarachnoid space. Physiology & Behavior 1976; 17:1031-6. A midline incision was made on the back of the neck. The muscle was freed at the attachment to the skull exposing the cisternal membrane. The membrane was opened with a stab blade and an 8.5 cm polyethylene (PE-10) catheter was then inserted through the cisternal opening, and passed carefully and caudally into the intrathecal space at the L1-L3 spinal segments. The end of the catheter was tunneled through the subcutaneous space over the frontal bones, flushed with 10 μl saline, and then plugged with a short length of wire Animal testing was performed 5-7 days after intrathecal catheter placement.
To assess mechanical allodynia, the mechanical paw withdrawal threshold was measured with a series of von Frey hairs (range 0.4-15 g). Rats were placed in elevated Perspex enclosures (28 cm×15 cm×18 cm) with wire mesh bases and given 15-20 min to acclimatize to the testing environment. Rats will be allowed to acclimatize for 30 min in a clear plastic cage with a wire mesh bottom. The calibrated von Frey filament fibers were applied to the hindpaw briefly for 6 seconds to determine the paw withdrawal threshold before and after drug injection (intraperitoneally or intrathecally). A series of von Frey filaments with exponentially incremental stiffness (0.4, 0.7, 1.2, 2.0, 3.6, 5.5, 8.5 and 15 g) were used to measure the 50% threshold for hindpaw withdrawal in awake, unrestrained rats. Chaplan S R, Bach F W, Pogrel J W, Chung J M, Yaksh T L. Quantitative assessment of tactile allodynia in the rat paw. Journal of Neuroscience Methods 1994; 53:55-63. Brisk paw withdrawal from the pressure of a filament gently bent against the plantar paw was defined as a positive response, and absence of withdrawal within 6 s as a negative response. Filaments were touched to the hindpaw in sequential ascending or descending order until the threshold of response is crossed (allowing about 10 s between each increment of the von Frey filaments). Each time the threshold is crossed, the direction of stimulus presentation was reversed and the procedure will be resumed. Four responses were collected after the first threshold detection, and the 50% withdrawal thresholds were interpolated. In cases where response thresholds fell outside the range of detection, 15.00 and 0.25 g were, respectively, assigned for continuous negative or positive responses to the limit of stimuli.
All surgical procedures were performed under deep isoflurane anesthesia in 100% O2. The spinal nerve ligation (SNL) was performed as described previously. Kim, S. H., et al., An Experimental Model for Peripheral Neuropathy Produced by Segmental Spinal Nerve Ligation in the Rat, Pain, 1992, 50:355-63. Briefly, a midline incision above the lumbar spine exposed the left L6 transverse process. The process was then removed, the left L5 and L6 spinal nerves were isolated, and both nerves were tightly ligated with 6-0 silk. […]

[2] = target: T1, human CB1 (hCB1) receptor (Homo sapiens, UniProt P21554); assay: CB1 binding assay, competitive binding of [3H]CP 55940; details: at 1 μM; specific binding of [3H]-CP55940; CHO membranes
T1 construct: expressed in transfected cells; host or cells: CHO (Chinese hamster ovary) cells, membranes
Protocol: Cell membrane homogenates (25 μg protein) are incubated for 120 min at 37° C. with 0.5 nM [^3H]CP 55940 (the reference standard [Rinaldi-Carmona, 1996 #1320]) in the absence or presence of the test compound in a buffer containing 50 mM Tris HCl (pH 7.4), 5 mM MgCl2, 2.5 mM EDTA, and 0.3% bovine serum albumin (BSA). […]
(§1) […] [^3H]-CP55940 at a concentration of 0.5 nM and [^3H]-WIN55212 at a concentration of 0.8 nM were used as radioligands for hCB1 and hCB2 assays, respectively. The results are expressed as a percent inhibition of control specific binding. Compounds which displaced the radioligand by more than 50% for either hCB1 or hCB2 receptors were arbitrary chosen for functional activity determination.

CB1 [3] = target: T2, CB1 (Homo sapiens, UniProt P21554); assay: CB1 functional assay, [35S]GTP-γ-S binding; format: biochemical; design: purchased ES-110-MG; host or cells: CHO membrane extracts; details: for EC50 / Emax: Table 9; for EC50: mean of two determinations, read-out: [35S]GTP-γ-S hCB1 EC50 (nM ± SEM); for Emax: relative to the efficacy of CP 55,940; for Emax at 3 µM: read-out: [35S]GTP-γ-S hCB1 Emax (%), Table 9 footnote a: Efficacy determined at 3 μM, relative to CP 55,940
Protocol: (§2) A dose response curve was generated at eight concentrations in duplicate on CB1 and CB2 in light of reference agonists.
(§3) Membranes (CB1, ES-110-MG or CB2, ES-111-MG) are mixed with GDP (volume:volume) and incubated for at least […] on ice. In parallel, […] are mixed with the beads (volume:volume) just before starting the reaction. The following reagents are successively added in the wells of an Optiplate: 50 μl of ligand, 20 μl of the membranes:GDP mix, 10 μl of assay buffer for agonist testing and 20 μl of the […]: beads mix. The plates are covered with a topseal, shaken on an orbital shaker for 2 min, and then incubated between 30 to 60 min at room temperature. Then the plates are centrifuged for 10 min at 2000 rpm, incubated at room temperature between 1 to 4 hours and counted for 1 min with a PerkinElmer TopCount reader.
(§4) Functional activity for acyl hydrazone was evaluated using [^35S]GTP-γ-S assay in CHO membrane extracts expressing recombinant hCB1 receptor or hCB2 receptor. The assay relies on the binding of [^35S]GTP-γ-S, a radiolabeled nonhydrolyzable GTP analogue, to the G protein upon binding of an agonist of the G-protein-coupled receptor. In this system, agonists stimulate [^35S]GTP-γ-S binding whereas neutral antagonist have no effect and inverse agonists decrease [^35S]GTP-γ-S basal binding.
(§5) CB1 and CB2 assay data are presented as the mean of two determinations. […] For replicate determinations, the maximum variability tolerated in the test was of ±20% around the average of the replicates.

[4] = target: T3, human CB2 (hCB2) receptor (Homo sapiens, UniProt P34972); assay: CB2 binding assay, competitive binding of [3H]WIN 55212-2; details: read-out: % inhibition hCB2 receptor, at 1 μM; specific binding of [3H]-WIN55212-2; CHO membranes
T3 construct: expressed in transfected cells; host or cells: CHO (Chinese hamster ovary) cells, membranes
Protocol: Cell membrane homogenates (15 μg protein) are incubated for 120 min at 37° C. with 0.8 nM [^3H]WIN 55212-2 (the reference standard [Munro, 1993 #1321]) in the absence or presence of the test compound in a buffer containing 50 mM HEPES/Tris HCL (pH 7.4), 5 mM MgCl2, 2.5 mM EGTA, and 0.1% BSA. Nonspecific binding is determined in the presence of 10 μM WIN 55212-2. After being incubated, the samples are filtered rapidly under vacuum through glass fiber filters (GF/B; Packard) presoaked with 0.3% PEI and rinsed several times with ice-cold buffer containing 50 mM Tris HCl (pH 7.4) and 0.5% BSA using a 96-sample cell harvester (Unifilter; Packard). The filters are dried then counted for radioactivity in a scintillation counter (Topcount; Packard) using a scintillation cocktail (Microscint 0; Packard). The results are expressed as a percentage of the inhibition of the control radioligand-specific binding. The reference standard compounds are tested in each experiment at several concentrations to obtain a competition curve from which its IC50 is calculated.
as §1

hCB2 receptor = target: T4, hCB2 receptor (Homo sapiens, UniProt P34972); assay: CB2 functional assay, [35S]GTP-γ-S binding; format: biochemical; details: for Emax at 3 µM: read-out: [35S]GTP-γ-S hCB2 Emax (%), Table 9 footnote a: Efficacy determined at 3 μM, relative to CP 55,940; for EC50 / Emax: Table 9; for EC50: mean of two determinations, read-out: [35S]GTP-γ-S hCB2 EC50 (nM ± SEM); for Emax: relative to the efficacy of CP 55,940
T4 construct: purchased ES-111-MG; host or cells: CHO membrane extracts
Protocol: as §2, §3, §4, §5

CB1 [5] = target: T2, CB1; assay: CB1 antagonist functional assay; format: biochemical; details: data not shown

T2 sequence (P21554 whole entry): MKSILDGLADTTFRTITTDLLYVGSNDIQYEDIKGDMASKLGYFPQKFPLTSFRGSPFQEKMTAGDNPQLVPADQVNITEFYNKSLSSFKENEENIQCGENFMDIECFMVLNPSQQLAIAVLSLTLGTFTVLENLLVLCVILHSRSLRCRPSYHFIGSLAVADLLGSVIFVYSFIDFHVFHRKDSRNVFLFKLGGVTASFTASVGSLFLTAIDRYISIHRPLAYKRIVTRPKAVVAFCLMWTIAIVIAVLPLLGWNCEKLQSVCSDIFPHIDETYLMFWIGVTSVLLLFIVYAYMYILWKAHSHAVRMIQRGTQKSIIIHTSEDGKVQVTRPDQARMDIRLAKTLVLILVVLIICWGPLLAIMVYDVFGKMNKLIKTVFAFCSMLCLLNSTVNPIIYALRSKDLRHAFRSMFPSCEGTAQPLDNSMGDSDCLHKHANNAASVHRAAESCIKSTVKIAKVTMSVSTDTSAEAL
T1 sequence (P21554 whole entry): as above
T4 sequence (P34972 whole entry): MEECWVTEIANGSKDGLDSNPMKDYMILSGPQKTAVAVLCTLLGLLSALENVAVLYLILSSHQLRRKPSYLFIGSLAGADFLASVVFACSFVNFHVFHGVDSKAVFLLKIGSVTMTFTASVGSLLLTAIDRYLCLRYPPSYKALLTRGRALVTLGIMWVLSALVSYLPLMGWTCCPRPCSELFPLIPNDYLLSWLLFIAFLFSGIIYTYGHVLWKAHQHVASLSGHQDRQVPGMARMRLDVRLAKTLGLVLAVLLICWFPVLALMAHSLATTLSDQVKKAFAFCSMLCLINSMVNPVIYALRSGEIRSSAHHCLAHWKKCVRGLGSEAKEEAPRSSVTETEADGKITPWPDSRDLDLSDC
T3 sequence (P34972 whole entry): as above

Row | SMILES | effect of pretreatment on the anti-allodynic effect of Example 6 [1] | inhibition at 1 µM [2] [%] | functional activity on CB1 receptor (in words) (CB1 [3]; [35S]GTP-γ-S) | inhibition at 1 µM [4] [%] | functional activity on CB2 receptor (in words) (hCB2 receptor; [35S]GTP-γ-S) | Emax at 3 µM (hCB2 receptor) [%] | EC50 (CB1 [3]) [nM] | Emax (CB1 [3]) [%] | EC50 (hCB2 receptor) [nM] | Emax (hCB2 receptor) [%] | Emax at 3 µM (CB1 [3]) [%] | antagonist activity in a CB1 antagonist functional assay (CB1 [5])
1 | COc1ccc(C(=O)c2c(C)n(CCN3CCOCC3)c3cc(I)ccc23)cc1 [AM630, reference compound] | antagonized the effects of compound of Example 6 |  |  |  |  |  |  |  |  |  |  | 
2 | CCCCCCN1C(=O)/C(=N/NC(=O)OC(C)(C)C)c2ccccc21 [Example 15, tert-butyl (2E)-2-(1-hexyl-2-oxo-1,2-dihydro-3H-indol-3-ylidene)hydrazinecarboxylate] |  | 75 ± 0.1 | failed to exhibited functional activity | 27 ± 3.7 | failed to exhibited functional activity | 23.4 |  |  |  |  |  | 
3 | CCCCCCN1C(=O)/C(=N\NC(=O)c2ccc(OC)cc2)c2ccccc21 [Example 17, N′-[(3Z)-1-hexyl-2-oxo-1,2-dihydro-3H-indol-3-ylidene]-4-methoxybenzohydrazide] |  | 81.7 ± 1.1 |  | 56 ± 5.7 |  |  | 852 ± 1.2 | 71 | 143 ± 2.6 | 49.5 |  | 
4 | CCCCCCN1C(=O)/C(=N\NC(=O)c2cccc3ccccc23)c2ccccc21 [Example 19, N′-[(3Z)-1-hexyl-2-oxo-1,2-dihydro-3H-indol-3-ylidene]-1-naphthohydrazide] |  | > 80 |  | 69.8 ± 4 |  |  |  |  | 202.2 ± 2 | 30.5 | 12.9 | failed to be antagonist
5 | CCCCCCN1C(=O)/C(=N\NC(=O)C23CC4CC(CC(C4)C2)C3)c2ccccc21 [Example 20, N′-[(3Z)-1-hexyl-2-oxo-1,2-dihydro-3H-indol-3-ylidene]adamantane-1-carbohydrazide] |  | > 85 |  | > 85 |  | 32.1 |  |  |  |  | 34.6 | failed to be antagonist
6 | CCCCN1C(=O)/C(=N\NC(=O)c2ccccc2)c2ccccc21 [Example 22, N′-[(3Z)-1-(1-butyl)-2-oxo-1,2-dihydro-3H-indol-3-ylidene]benzohydrazide] |  | 86 ± 2.4 |  | 70 ± 2.4 |  |  |  |  | 40.1 ± 1.5 | 98.9 | 69 | 
7 | CCCCCN1C(=O)/C(=N\NC(=O)c2ccccc2)c2ccccc21 [Example 23, N′-[(3Z)-1-(1-pentyl)-2-oxo-1,2-dihydro-3H-indol-3-ylidene]benzohydrazide] |  | 95 ± 0.9 |  | 80 ± 0.9 |  |  | 314.1 ± 1.6 | 95.1 | 240 ± 3.2 | 68.5 |  | 
8 | O=C(N/N=C1\C(=O)N(CC2CCCCC2)c2ccccc21)c1ccccc1 [Example 25, N′-[(3Z)-1-(cyclohexylmethyl)-2-oxo-1,2-dihydro-3H-indol-3-ylidene]benzohydrazide] |  | 99 ± 1.1 |  | 100 ± 0.4 |  |  | 62.3 ± 1.3 | 99 | 9.8 ± 1.1 | 65.7 |  | 
9 | O=C(N/N=C1\C(=O)N(Cc2ccc(Cl)cc2)c2ccccc21)c1ccccc1 [Example 26, N′-[(3Z)-1-(4-chlorobenzyl)-2-oxo-1,2-dihydro-3H-indol-3-ylidene]benzohydrazide] |  | 94.5 ± 0.8 |  | 22 ± 1.6 |  |  | 895.6 ± 1.2 | 72 | 131 ± 1.7 | 39.8 |  | 
